{"source": "patent US9901637B2", "about": "“Vitamin D3 and analogs thereof for treating alopecia” (priority 2009, dated 2018)", "key": {"[1]": {"tested_on": "Primary human epidermal keratinocytes (HEKa)", "assay": "Real-time PCR array, Heat Shock Protein Array, calcitriol-treated HEKa", "format": "cell-based", "settings": "HEKa cells, 0.1 μg/mL calcitriol", "procedure": "(§1) Changes in mRNA levels were evaluated using real-time PCR quantification to assess mRNA levels in preselected subsets containing 80 pathway specific targets (see Appendix). The PCR array analysis utilized two groups of genes—those related to Heat Shock Proteins (SABiosciences), and those related to Neuroscience Ion Channels and Transporters (SABioscience). Primary human epidermal keratinocytes (HEKa) were maintained in Epilife Medium (Cascade Biologics, Inc., Portland Oreg.) along with Human Keratinocyte Growth Supplement (Cascade Biologics, Inc., Portland Oreg.). […] Vehicle control group of cells were treated with 5 mL media containing 1 μL of ethanol. Cells were harvested 3, 6, 16, 24, 48, or 72 hours after the start of the treatment. Cells were lysed for RNA isolation at different treatment times using the RNeasy Mini kit (Qiagen, Inc., Valencia Calif.) following the manufacturer's instructions. RNA was quantified by measuring optical density at 260 nm. First Strand Synthesis: […] Products from the first strand synthesis were diluted with water, mixed with the SYBR green master mix (SABiosciences, Frederick Md.) and loaded onto PCR arrays. Real time PCR was run on the PCR Arrays (Heat Shock Protein Arrays, and Neuroscience and Ion Channel Arrays) (SABiosciences, Frederick Md.) on a Biorad CFX96. Data analyses were performed using the PCR array data analysis software available on the SABiosciences website."}, "[2]": {"tested_on": "Primary human epidermal keratinocytes (HEKa)", "assay": "Real-time PCR array, Neuroscience and Ion Channels Array, calcitriol-treated HEKa", "format": "cell-based", "settings": "HEKa cells, 0.1 μg/mL calcitriol, three independent experiments", "procedure": "as §1"}, "HEKa cells [3]": {"tested_on": "HEKa cells", "assay": "Proteomic analysis (2-D gel electrophoresis) of calcitriol-treated HEKa", "format": "cell-based, human", "settings": "0.1 μg/mL calcitriol", "procedure": "The cell pellets were then analyzed using proteomic methods, such as 2-D gel and Western blot analysis. […] In all, analysis of about 458 protein spots in the comparative study was performed, comparing the control sample against the 3-, 6-, and 24-hour treatment samples. Six spots showing statistically significant differential changes were identified. These spots were excised, and their protein contents subjected to sequence identification by trypsin digestion and mass spectrometry characterization."}, "HEKa cells [4]": {"tested_on": "HEKa cells", "assay": "Pretreatment of cells with calcitriol, cell viability assay with chemotherapy drugs", "format": "cell-based, human", "source_text": "Then these pretreated cells were utilized to set up the cell-based assay. […] The four cancer cell lines continued to grow and were not altered in their general morphological appearances. […] For this cell line, a new batch of cells were started and were exposed to only a single passage in the presence of calcitriol, prior to testing in the presence of the chemotherapy drugs. Three commonly used chemotherapy drugs (doxorubicin, cisplatin and erlotinib) were selected to evaluate calcitriol treated cells. […] In these experiments, the commercial drugs were serially diluted, starting at a concentration 4-times higher than the final desired concentration for cell incubation. […] The assay was carried out according to the previously described method in order to provide consistency and allow direct comparison. The result was based upon measurement of the total number of viable cells. […] Thus, a topical application of calcitriol could be applied at the same time as the systemic delivery of the chemotherapy. A staged application is not required."}, "[5]": {"tested_on": "SkBr-3 (breast adenocarcinoma cancer, Her2 overexpressed)", "assay": "Cell growth/viability assay, calcitriol with or without chemotherapy drug", "format": "cell-based"}, "[6]": {"tested_on": "PaCa2 (pancreatic carcinoma)", "assay": "Cell growth/viability assay, calcitriol with or without chemotherapy drug", "format": "cell-based"}, "HepG2 (liver cancer)": {"tested_on": "HepG2 (liver cancer)", "assay": "Cell growth/viability assay, calcitriol with or without chemotherapy drug", "format": "cell-based"}, "PC-3": {"tested_on": "PC-3", "assay": "Cell viability assay after calcitriol exposure for two passages", "format": "cell-based", "settings": "PC-3, 0.1 μg/mL calcitriol for two passages", "procedure": "Then these pretreated cells were utilized to set up the cell-based assay. […] Three commonly used chemotherapy drugs (doxorubicin, cisplatin and erlotinib) were selected to evaluate calcitriol treated cells. […] In these experiments, the commercial drugs were serially diluted, starting at a concentration 4-times higher than the final desired concentration for cell incubation."}, "[7]": {"tested_on": "MIAC51 (chloroleukemia cells)", "assay": "Rats transplanted with chloroleukemia: protection of cancer cells from chemotherapy", "format": "in vivo", "settings": "Long Evans rats injected with MIAC51, cyclophosphamide; preliminary results", "procedure": "For experiments in which rats were transplanted with chloroleukemia, on Day 5 after birth, rats were randomly divided into three groups of 45 each. All rats received 1×10^5 chloroleukemic cell line MIAC51 (i.p.) in 0.1 mL of serum free (SF) RPMI. MIAC51 were cultured in RPMI 1640 supplemented with L-glutamine and 10% fetal bovine serum at 37° C. in a 5% CO2, 100% humidity incubator. Cells were grown to 50% confluency (1.5×106 mL) collected in 50 mL conical tubes, centrifuged at 600 g×10 min. at room temperature and resuspended in SF-RPMI at a concentration of 1×10^6/mL. Group 1 rats received no further treatment. Group 2 rats received topical vehicle and CTX on day 13. […] Topical applications were performed as described above.\nOn day 23 after birth, a sample of blood was taken from all rats and differentials performed. Rats with leukemia were sacrificed, rats without leukemia were kept and a second differential performed on day 31, at any point if leukemia was detected, animals were sacrificed by CO2 asphyxiation."}, "[8]": {"assay": "Preliminary animal toxicology study", "format": "in vivo", "settings": "dose of about 100 μg"}, "in vivo": {"assay": "in vivo", "settings": "Gottingen, minipig, topical", "excerpt": "At the end of the study, the skin was reflected from a ventral midline incision, and sections of treated and untreated skin were collected and preserved. Sections of each 6×6 cm dosing site were first thoroughly surface washed with a mild soap and water mixture (e.g., 1% Ivory Soap in water or equivalent) to remove any residual topical test formulation. The washed skin sections were then wiped clean with ethanol, and were excised down to and including the adipose layer. If the area to be excised is larger than the dosed area, the dosed area was demarked with indelible ink to delineate the skin area that was dosed. The 1.5 cm×1.5 cm sections were laid flat, wrapped in two layers of Saran wrap (or equivalent) and flash frozen in liquid nitrogen. The samples were stored at −70° C. and shipped on dry ice via overnight courier for analysis. Each skin section was identified as appropriate (e.g., animal identification, study number, date, etc).\nUpon arrival at the analysis site, skin sections were placed in water tight plastic bag and thawed by emersion in warm water (˜30° C.-35° C.). Each skin section was gently rinsed with distilled de-ionized water to remove any residual test article and blood. All subcutaneous tissue (e.g., adipose) was removed by manual scalpel ablation. Within the central region of the dosed area, four individual 1 cm^2 circles (replicates) were demarked, and each site was subsequently identified and the actual area recorded. The replicate test sites were then excised from the skin sheet using a 1 cm^2 punch. The skin sections were weighed and the weight recorded. […] This process removed the stratum corneum and any residual surface dose.\nFollowing tape stripping, the skin was separated into epidermis (sans stratum corneum, simply referred to herein after as “epidermis”) and dermis by heat exposure to 60° C. for approximately 1-1.5 minutes. The skin layers were then teased apart using fine-tipped forceps or scalpel. The epidermis and dermis were weighed and the weight recorded.\nFor extraction, all skin samples were extracted in 1 mL of absolute ethanol (Sigma-Aldrich, USP/NF Grade). Tape strips were extracted in 5 mL acetonitrile (EMD, HPLC Grade). All extractions were conducted at room temperature for approximately 24 hours. An amount of 500 μL of the tape strip extract was dried by vacuum centrifugation and reconstituted in 100 μL absolute acetonitrile. The epidermal extract was also dried and reconstituted in 100 μL 80:20 ethanol:water.\nLower limit of detection is estimated at 0.4 ng/mL.\nHowever, the concentration reported, as μg/mg, is determined by the differential total sample weight before layer separation minus the weights of the epidermis and dermis for that sample (rather than by actual weight due to its adherence to the tape strips). Epidermal and dermal samples are reported as tissue concentration (ng/mg) using the amount measured from the sample divided by actual wet weight of the skin layer."}}, "note": "Where two headings read alike, the source gives them in different places.", "data": [{"smiles": "C=C1/C(=C\\C=C2/CCC[C@]3(C)[C@@H]([C@H](C)CCCC(C)(C)O)CC[C@@H]23)C[C@@H](O)C[C@@H]1O", "note": "[Calcitriol, 1,25-dihydroxyvitamin D3]", "values": [{"measurement": "HSPB1 (Heat shock 27 kDa protein 1) mRNA Regulation Pattern", "setting": "[1]; regulated in two independent experiments", "value": "Down regulated at 48 hours"}, {"measurement": "DNAJC6 (DnaJ (Hsp40) homolog, subfamily C, member 6) mRNA Regulation Pattern", "setting": "[1]; two independent experiments", "value": "Downregulated"}, {"measurement": "HSF4 (Heat shock transcription factor 4) mRNA Regulation Pattern", "setting": "[1]; two independent experiments", "value": "Upregulated at 48 hours"}, {"measurement": "HSPA2 (Heat shock 70 kDa protein 2) mRNA Regulation Pattern", "setting": "[1]; two independent experiments", "value": "Upregulated at 48 hours"}, {"measurement": "SLC1A1 mRNA Regulation Pattern", "setting": "[2]; at 16 hrs", "value": "upregulated"}, {"measurement": "KCNN4 mRNA Regulation Pattern", "setting": "[2]; at 48 hours", "value": "upregulated at 48"}, {"measurement": "KCNB2 mRNA Regulation Pattern", "setting": "[2]; until 24 hours", "value": "upregulated until"}, {"measurement": "Glutathione S-transferase (GST) Response", "setting": "HEKa cells [3]; at 3, 6, and 24 hours, 2-D gel spot 4", "value": "up at 3,"}, {"measurement": "S100 A13 Response", "setting": "HEKa cells [3]; at 6 and 24 hours, spot 14", "value": "up at"}, {"measurement": "Galectin 1 (LGALS1) Response", "setting": "HEKa cells [3]; at 6 and 24 hours, spot 27", "value": "up at"}, {"measurement": "Keratin 1 (KRT1) Response", "setting": "HEKa cells [3]; at 6 hours, spot 2", "value": "up at"}, {"measurement": "growth of HEKa cells after prolonged calcitriol exposure", "setting": "HEKa cells [4]; 0.1 μg/mL calcitriol for two cell passages", "value": "stopped growing"}, {"measurement": "chemoprotective effect, pre-treatment group versus simultaneous treatment group", "setting": "HEKa cells [4]; 0.1 μg/mL calcitriol, doxorubicin, cisplatin, erlotinib", "value": "nearly identical"}, {"measurement": "effect of calcitriol on cell growth", "setting": "[5]", "value": "no significant growth promoting or growth inhibiting effects"}, {"measurement": "effect on the cytotoxic effect of Doxorubicin", "setting": "[5]", "value": "did not appear to appreciably alter"}, {"measurement": "effect of calcitriol on cell growth", "setting": "[6]; PaCa2", "value": "no significant growth promoting or growth inhibiting effects"}, {"measurement": "effect on the cytotoxic effect of Doxorubicin", "setting": "[6]; PaCa-2", "value": "did not appear to appreciably alter"}, {"measurement": "5-FU ED50 curve with versus without calcitriol", "setting": "[6]; PaCa-2, 0.1 μg/mL calcitriol", "value": "not significantly different"}, {"measurement": "response to other drugs (doxorubucin, cisplatin, erlotinib) after calcitriol exposure", "setting": "[6]; PaCa-2, 0.1 μg/mL calcitriol for two passages", "value": "did not alter"}, {"measurement": "effect on the cytotoxic effect of Doxorubicin", "setting": "HepG2 (liver cancer); Hep-G2", "value": "did not appear to appreciably alter"}, {"measurement": "5-FU ED50 curve with versus without calcitriol", "setting": "HepG2 (liver cancer); Hep-G2, 0.1 μg/mL calcitriol", "value": "not significantly different"}, {"measurement": "response to other drugs (doxorubucin, cisplatin, erlotinib) after calcitriol exposure", "setting": "HepG2 (liver cancer); Hep-G2, 0.1 μg/mL calcitriol for two passages", "value": "did not alter"}, {"measurement": "concentrations giving calcitriol growth inhibition", "setting": "HepG2 (liver cancer); HepG2", "value": "> 0.5", "unit": "µg/mL"}, {"measurement": "concentrations giving calcitriol growth stimulation", "setting": "HepG2 (liver cancer); HepG2", "value": "0.05 to 0.25", "unit": "µg/mL"}, {"measurement": "response to other drugs (doxorubucin, cisplatin, erlotinib) after calcitriol exposure", "setting": "PC-3", "value": "did not alter"}, {"measurement": "protection of the cancer cells from chemotherapy by topical calcitriol", "setting": "[7]", "value": "have not shown protection of the cancer cells"}, {"measurement": "dermal irritation", "setting": "[8]", "value": "no dermal irritation"}, {"measurement": "skin penetration", "setting": "[8]", "value": "excellent epidermal penetration without substantial dermal penetration"}, {"measurement": "Stratum Corneum, Calcitriol Recovered, Mean ± SD", "setting": "Female Minipigs, 1 μg/mL dermal twice daily 7 days", "value": "0.76 ± 1.3 (3) ng/cm2"}, {"measurement": "Stratum Corneum, Calcitriol Recovered, Mean ± SD", "setting": "Female Minipigs, 3 μg/mL dermal twice daily 7 days", "value": "1.12 ± 1.49(3) ng/cm2"}, {"measurement": "Stratum Corneum, Calcitriol Recovered, Mean ± SD", "setting": "Female Minipigs, 10 μg/mL dermal twice daily 7 days", "value": "1.65 ± 1.80 (3) ng/cm2"}, {"measurement": "Stratum Corneum, Calcitriol Recovered, Mean ± SD", "setting": "Female Minipigs, 30 μg/mL dermal twice daily 7 days", "value": "20.2 ± 11.7 (3) ng/cm2"}, {"measurement": "Stratum Corneum, Calcitriol Recovered, Mean ± SD", "setting": "Male Minipigs (1 animal), 100 μg/mL dermal twice daily 7 days", "value": "118.1 ± 11.4 (1) ng/cm2"}, {"measurement": "Stratum Corneum, Calcitriol Recovered, Mean ± SD", "setting": "Male Minipigs, 1 μg/mL dermal twice daily 7 days", "value": "56.1 ± 17.4 (3) ng/cm2"}, {"measurement": "Stratum Corneum, Calcitriol Recovered, Mean ± SD", "setting": "Male Minipigs, 3 μg/mL dermal twice daily 7 days", "value": "62.4 ± 7.91 (3) ng/cm2"}, {"measurement": "Stratum Corneum, Calcitriol Recovered, Mean ± SD", "setting": "Male Minipigs, 10 μg/mL dermal twice daily 7 days", "value": "59.6 ± 14.1 (3) ng/cm2"}, {"measurement": "Stratum Corneum, Calcitriol Recovered, Mean ± SD", "setting": "Male Minipigs, 30 μg/mL dermal twice daily 7 days", "value": "54.6 ± 32.5 (3) ng/cm2"}, {"measurement": "applied dose correlation to tissue level in the epidermis", "setting": "minipigs, calcitriol concentrations from 3 to 100 μg/mL", "value": "near linear increase"}, {"measurement": "concentration at 7 days", "setting": "in vivo; female, stratum corneum (tape strips), 1 μg/mL", "value": "30 ± 50", "unit": "ng/g"}, {"measurement": "concentration at 7 days", "setting": "in vivo; female, stratum corneum (tape strips), 3 μg/mL", "value": "40 ± 60", "unit": "ng/g"}, {"measurement": "concentration at 7 days", "setting": "in vivo; female, stratum corneum (tape strips), 10 μg/mL", "value": "50 ± 40", "unit": "ng/g"}, {"measurement": "concentration at 7 days", "setting": "in vivo; female, stratum corneum (tape strips), 30 μg/mL", "value": "640 ± 370", "unit": "ng/g"}, {"measurement": "concentration at 7 days", "setting": "in vivo; female, 1 μg/mL", "value": 0, "unit": "ng/g"}, {"measurement": "concentration at 7 days", "setting": "in vivo; female, 3 μg/mL", "value": 0, "unit": "ng/g"}, {"measurement": "concentration at 7 days", "setting": "in vivo; male, stratum corneum (tape strips), 1 μg/mL", "value": "1540 ± 790", "unit": "ng/g"}, {"measurement": "concentration at 7 days", "setting": "in vivo; male, stratum corneum (tape strips), 3 μg/mL", "value": "1630 ± 250", "unit": "ng/g"}, {"measurement": "concentration at 7 days", "setting": "in vivo; male, stratum corneum (tape strips), 10 μg/mL", "value": "2020 ± 390", "unit": "ng/g"}, {"measurement": "concentration at 7 days", "setting": "in vivo; male, stratum corneum (tape strips), 30 μg/mL", "value": "1510 ± 890", "unit": "ng/g"}, {"measurement": "concentration at 7 days", "setting": "in vivo; male, stratum corneum (tape strips), 100 μg/mL", "value": "4520 ± 1210", "unit": "ng/g"}]}]}
